Earlier results on 4 compounds are cited in patent US8076148B2, “Cytochrome c protein and assay” (GE Healthcare UK Limited, priority 2003, dated 2011).

Data set [1] concerns rat pheochromocytoma-6 (PC6) cells. Conditions: PC6 cells expressing rat cytochrome c-GFP.
The test system of a further data set is caspase-9. Conditions: in vitro.
The next data set deals with T1, Apaf-1 (Homo sapiens, UniProt O14727).
T1 sequence (O14727 1-1248): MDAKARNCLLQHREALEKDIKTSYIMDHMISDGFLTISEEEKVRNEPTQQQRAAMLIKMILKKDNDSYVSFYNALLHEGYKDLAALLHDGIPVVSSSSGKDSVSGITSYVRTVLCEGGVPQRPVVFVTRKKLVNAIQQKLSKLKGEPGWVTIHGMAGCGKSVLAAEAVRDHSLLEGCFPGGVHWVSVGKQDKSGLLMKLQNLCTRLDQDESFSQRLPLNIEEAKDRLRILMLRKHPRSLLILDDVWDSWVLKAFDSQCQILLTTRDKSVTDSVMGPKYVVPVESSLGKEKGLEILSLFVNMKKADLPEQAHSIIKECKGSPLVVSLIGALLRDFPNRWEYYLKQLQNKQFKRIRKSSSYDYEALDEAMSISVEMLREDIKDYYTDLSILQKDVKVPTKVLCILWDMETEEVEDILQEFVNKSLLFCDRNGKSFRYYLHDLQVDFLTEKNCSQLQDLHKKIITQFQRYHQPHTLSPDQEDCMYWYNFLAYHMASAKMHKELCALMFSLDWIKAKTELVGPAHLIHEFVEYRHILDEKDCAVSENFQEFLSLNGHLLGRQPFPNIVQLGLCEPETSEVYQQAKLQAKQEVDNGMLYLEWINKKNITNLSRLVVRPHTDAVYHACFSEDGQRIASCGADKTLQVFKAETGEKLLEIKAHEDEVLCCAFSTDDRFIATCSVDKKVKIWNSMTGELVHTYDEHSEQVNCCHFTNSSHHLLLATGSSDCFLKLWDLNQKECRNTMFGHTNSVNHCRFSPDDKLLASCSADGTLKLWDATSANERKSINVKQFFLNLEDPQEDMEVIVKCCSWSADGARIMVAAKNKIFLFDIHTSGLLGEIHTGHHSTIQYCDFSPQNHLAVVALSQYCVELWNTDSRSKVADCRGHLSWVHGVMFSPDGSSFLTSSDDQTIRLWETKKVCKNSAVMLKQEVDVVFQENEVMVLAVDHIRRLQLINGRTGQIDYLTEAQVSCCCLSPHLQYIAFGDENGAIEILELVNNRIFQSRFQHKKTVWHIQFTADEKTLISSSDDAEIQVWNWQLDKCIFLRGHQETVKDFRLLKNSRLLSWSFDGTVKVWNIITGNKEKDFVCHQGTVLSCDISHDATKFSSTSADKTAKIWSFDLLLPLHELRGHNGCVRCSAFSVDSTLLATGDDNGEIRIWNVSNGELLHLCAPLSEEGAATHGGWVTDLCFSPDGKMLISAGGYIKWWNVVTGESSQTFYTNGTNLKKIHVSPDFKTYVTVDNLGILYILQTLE
Conditions: in vitro.

As to `CN[C@@H]1C[C@H]2O[C@@](C)([C@@H]1OC)n1c3ccccc3c3c4c(c5c6ccccc6n2c5c31)C(=O)NC4` [staurosporine], the “release of cytochrome c-GFP fusion from the mitochondria” value in data set [1] is given as “led to release of the fusion from the mitochondria”.
Take “Horse cytochrome c: horse wild type cytochrome c, highly homologous to human cytochrome c”: in the data set on caspase-9, the caspase activation result is on record as “can initiate caspase activation”.
Regarding “K72A: cytochrome c mutant, lysine 72 to alanine, from the literature in vitro studies (Kluck et al.; Yu et al.)”, in the data set with Apaf-1, the “binding to Apaf-1” value is “no detectable binding”. For the same compound, in the data set on caspase-9, the caspase activation entry is “no detectable binding or caspase-9 activation”.
Turning to “yeast cytochrome c: yeast wild type cytochrome c”, the “binding to Apaf-1” value with Apaf-1 is recorded as “did not measurably bind”. Also, in the data set with caspase-9, the caspase activation entry was “nor activate caspase”.
